Measured values reported in patent publication US8431523B2, “Oligomeric biosurfactants in dermatocosmetic compositions” (priority 2006, dated 2013).
Non-standard residues stand in square brackets, D forms with d. Residues, ends and D or L forms follow the SMILES beside them. *: point of attachment. Palmitoyl = CCCCCCCCCCCCCCCC(=O)*; Myristoyl = CCCCCCCCCCCCCC(=O)*

Tests used:
[1] = tested on: E. coli, P. aeruginosa, P. cepacia, S. aureus, including MRSA, S. epidermidis, and C. albicans; assay type: cell-based
Description: By “antimicrobial” activity is meant the ability to inhibit the growth of at least one microbial organism selected from the group consisting E. coli, P. aeruginosa, S. aureus and C. albicans, as confirmed by optical density measurement (“OD”).
By “inhibition of growth” is meant reduction or absence of an increase greater than 5% in OD, a dimensionless measure of turbidity that is proportional to the amount of microbial cells present in a sample. For illustrative purposes, a OAB according to the present invention is added to a culture plate on which E. coli is present at a final concentration of about 5×10^3 cfu/ml. The plate is then incubated at about 37° C. for about 24 hours at which time the E. coli is resuspended by shaking, and OD is measured at about 600 nm. Thus, a reduction or absence of an increase greater than 5% in OD confirms the antimicrobial nature of the OAB with respect to E. coli.
Minimum inhibitory concentration (“MIC”) is a method well-known to those of skill in the art for expressing antimicrobial activity. A compound to be tested is serially diluted into growth medium, inoculated with culture and then incubated. The MIC is the lowest dilution of compound that inhibits or prevents growth of the target microorganism.
A further aspect of the present invention is directed to oligomeric acylated biosurfactants having a CMC of less than about 100 ppm in an aqueous environment of MEM Solution that reduces the surface tension of the MEM Solution to less than about […] where the OAB consists essentially of two to nine amino acid residues, at least one of which is charged, and has a MIC of less than 100 ppm for at least two of the following microorganisms: E. coli, P. aeruginosa, P. cepacia, S. aureus, including MRSA, S. epidermidis, and C. albicans. OABs meeting this criterion are selected from the group consisting of: Myr-GR-amide (P300); Myr-KK-amide (P315); Pal-HR-amide (P320); Myr-KK-acid (P347); SEQ ID NO 79 (P367); Myr-GHR-amide (P245); Pal-GHR-amide (P250); Myr-GRK-amide (P303); Pal-G-H—[R]^D-amide (P366); SEQ ID NO 84 (368); SEQ ID NO 58 (P370); SEQ ID NO 59 (P360); SEQ ID NO 60 (P373); SEQ ID NO 61 (P376); SEQ ID NO 62 (P369); SEQ ID NO 63 (P379); SEQ ID NO 64 (P381); SEQ ID NO 65 (P416); SEQ ID NO 66 (P383); and SEQ ID NO 67 (P289).

[2] = tested on: P. cepacia; test: Minimum inhibitory concentration, P. cepacia; assay type: cell-based, Pseudomonas cepacia
Description: By “antimicrobial” activity is meant the ability to inhibit the growth of at least one microbial organism selected from the group consisting E. coli, P. aeruginosa, S. aureus and C. albicans, as confirmed by optical density measurement (“OD”). By “inhibition of growth” is meant reduction or absence of an increase greater than 5% in OD, a dimensionless measure of turbidity that is proportional to the amount of microbial cells present in a sample. For illustrative purposes, a OAB according to the present invention is added to a culture plate on which E. coli is present at a final concentration of about 5×10^3 cfu/ml. The plate is then incubated at about 37° C. for about 24 hours at which time the E. coli is resuspended by shaking, and OD is measured at about 600 nm. Thus, a reduction or absence of an increase greater than 5% in OD confirms the antimicrobial nature of the OAB with respect to E. coli. Minimum inhibitory concentration (“MIC”) is a method well-known to those of skill in the art for expressing antimicrobial activity. A compound to be tested is serially diluted into growth medium, inoculated with culture and then incubated. The MIC is the lowest dilution of compound that inhibits or prevents growth of the target microorganism.

[3] = tested on: fibroblast proliferation; test: Cyquant Cell Proliferation Assay; assay type: cell-based
Experimental: For purposes of the present invention, proliferation is assessed using the Cyquant® Cell Proliferation Assay from Molecular Probes. This assay measures increased production of cellular nucleic acids that, in turn, results in increased binding of fluorescent dye.

| Structure (SMILES) | MIC for at least two of the listed microorganisms [1] | MIC(P. cepacia) [2] | increase fibroblast proliferation (qualitative) [3] |
| --- | --- | --- | --- |
| CCCCCCCCCCCCCC(=O)NCC(=O)N[C@@H](Cc1c[nH]cn1)C(=O)N[C@@H](CCCNC(=N)N)C(N)=O [P245, Myr-GHR-amide] (Myristoyl-Gly-His-Arg-NH2) | less than 100 ppm |  |  |
| CCCCCCCCCCCCCCCC(=O)NCC(=O)N[C@@H](Cc1c[nH]cn1)C(=O)N[C@@H](CCCNC(=N)N)C(N)=O [P250, Pal-GHR-amide] (Palmitoyl-Gly-His-Arg-NH2) | less than 100 ppm |  |  |
| CCCCCCCCCCCCCC(=O)N[C@@H](CC(C)C)C(=O)N[C@@H](CCCCN)C(=O)N[C@@H](C)C(=O)N[C@@H](CCCCN)C(N)=O [P289, Myr-LKAK-amide] (Myristoyl-LKAK-NH2) | less than 100 ppm |  |  |
| CCCCCCCCCCCCCC(=O)NCC(=O)N[C@@H](CCCNC(=N)N)C(N)=O [P300, Myr-GR-amide] (Myristoyl-Gly-Arg-NH2) | less than 100 ppm |  |  |
| CCCCCCCCCCCCCC(=O)N[C@@H](C)C(=O)N[C@@H](Cc1c[nH]cn1)C(=O)N[C@@H](CCCNC(=N)N)C(N)=O [P322, Myr-AHR-amide] (Myristoyl-Ala-His-Arg-NH2) |  | ≤ 100 ppm | increase fibroblast proliferation |
| CCCCCCCCCCCCCC(=O)N[C@@H](CCCNC(=N)N)C(=O)N[C@@H](CCCNC(=N)N)C(=O)N[C@@H](CCCNC(=N)N)C(N)=O [P342, Myr-RRR-amide] (Myristoyl-Arg-Arg-Arg-NH2) |  | ≤ 100 ppm | increase fibroblast proliferation |
| CCCCCCCCCCCCCC(=O)N[C@@H](CCCCN)C(=O)N[C@@H](CCCCN)C(=O)N[C@@H](CCCCN)C(=O)O [P348, Myr-KKK-acid] |  | ≤ 100 ppm | increase fibroblast proliferation |
| CCCCCCCCCCCCCC(=O)N[C@@H](CCCCN)C(=O)N[C@@H](CCCCN)C(=O)N[C@@H](C)C(=O)N[C@@H](CC(C)C)C(=O)N[C@@H](CCCCN)C(=O)O [P349, Myr-KKALK-acid] (Myristoyl-KKALK-OH) |  | ≤ 100 ppm | increase fibroblast proliferation |
| CCCCCCCCCCCCCC(=O)N[C@@H](CCCCN)C(=O)N[C@@H](CC(C)C)C(=O)N[C@@H](C)C(=O)N[C@@H](CCCCN)C(=O)N[C@@H](CCCCN)C(=O)O [P351, Myr-KLAKK-acid] (Myristoyl-KLAKK-OH) |  | ≤ 100 ppm | increase fibroblast proliferation |
| CCCCCCCCCCCCCC(=O)N[C@@H](CCCCN)C(=O)N[C@@H](CCCCN)C(=O)N[C@@H](C)C(=O)N[C@@H](CC(C)C)C(=O)O [P362, Myr-KKAL-acid] (Myristoyl-KKAL-OH) |  | ≤ 100 ppm | increase fibroblast proliferation |
| CCCCCCCCCCCCCC(=O)N[C@@H](CC(C)C)C(=O)N[C@@H](C)C(=O)N[C@@H](CCCCN)C(=O)N[C@@H](CCCCN)C(=O)O [P363, Myr-LAKK-acid] (Myristoyl-LAKK-OH) |  | ≤ 100 ppm | increase fibroblast proliferation |
| CCCCCCCCCCCCCC(=O)N[C@H](C(=O)N[C@@H](C)C(=O)N[C@@H](CCCCN)C(=O)N[C@@H](CCCCN)C(N)=O)[C@@H](C)CC [P371, Myr-IAKK-amide] (Myristoyl-IAKK-NH2) |  | ≤ 100 ppm | increase fibroblast proliferation |

Second part, led by results:

| MIC for at least two of the listed microorganisms [1] | MIC(P. cepacia) [2] | Structure (SMILES) | increase fibroblast proliferation (qualitative) [3] |
| --- | --- | --- | --- |
|  | ≤ 100 ppm | CCCCCCCCCCCCCC(=O)N[C@@H](CC(C)C)C(=O)N[C@@H](CO)C(=O)N[C@@H](CCCCN)C(=O)N[C@@H](CCCCN)C(N)=O [P372, Myr-LSKK-amide] (Myristoyl-LSKK-NH2) | increase fibroblast proliferation |
|  | ≤ 100 ppm | CCCCCCCCCCCCCC(=O)N[C@@H](CCCCN)C(=O)N[C@@H](CCCCN)C(=O)NCC(=O)N[C@@H](CC(C)C)C(=O)N[C@@H](CCCCN)C(N)=O [P374, Myr-KKGLK-amide] (Myristoyl-KKGLK-NH2) | increase fibroblast proliferation |
|  | ≤ 100 ppm | CCCCCCCCCCCCCC(=O)N[C@@H](CCCCN)C(=O)N[C@@H](CCCCN)C(=O)NCC(=O)N[C@H](C(=O)N[C@H](CCCCN)C(N)=O)[C@@H](C)CC [P390, Myr-KKG1-[K]^D-amide] (Myristoyl-KKGI[dK]-NH2) | increase fibroblast proliferation |
|  | ≤ 100 ppm | CCCCCCCCCCCCCC(=O)N[C@@H](CCCCN)C(=O)N[C@@H](CCCCN)C(=O)NCC(=O)N[C@@H](CC(C)C)C(=O)N[C@H](CCCCN)C(N)=O [P394, Myr-KKGL-[K]^D-amide] (Myristoyl-KKGL[dK]-NH2) | increase fibroblast proliferation |
|  | ≤ 100 ppm | CCCCCCCCCCCCCC(=O)N[C@@H](CCCCN)C(=O)N[C@@H](CCCCN)C(=O)N[C@@H](CO)C(=O)N[C@@H](CC(C)C)C(=O)N[C@H](CCCCN)C(N)=O [P395, Myr-KKSL-[K]^D-amide] (Myristoyl-KKSL[dK]-NH2) | increase fibroblast proliferation |
|  | ≤ 100 ppm | CCCCCCCCCCCCCC(=O)N[C@@H](CCCCN)C(=O)N[C@@H](CC(C)C)C(=O)N[C@@H](C)C(=O)N[C@@H](CCCCN)C(=O)N[C@@H](CCCCN)C(=O)N[C@H](CC(C)C)C(N)=O [P396, Myr-KLAKK-[L]^D-amide] (Myristoyl-KLAKK[dL]-NH2) | increase fibroblast proliferation |
|  | ≤ 100 ppm | CCCCCCCCCCCCCC(=O)NCC(=O)NCC(=O)N[C@@H](CCCCN)C(=O)N[C@@H](CCCNC(=N)N)C(N)=O [P399, Myr-GGKR-amide] (Myristoyl-GGKR-NH2) | increase fibroblast proliferation |
|  | ≤ 100 ppm | CCCCCCCCCCCCCC(=O)N[C@@H](C)C(=O)N[C@@H](C)C(=O)N[C@@H](CCCCN)C(=O)N[C@@H](CCCNC(=N)N)C(N)=O [P400, Myr-AAKR-amide] (Myristoyl-AAKR-NH2) | increase fibroblast proliferation |
|  | ≤ 100 ppm | CCCCCCCCCCCCCC(=O)N[C@@H](C)C(=O)N[C@@H](CCCCN)C(=O)N[C@@H](CCCCN)C(=O)NCC(=O)N[C@@H](CC(C)C)C(=O)N[C@H](CCCCN)C(N)=O [P402, Myr-AKKGL-[K]^D-amide] (Myristoyl-AKKGL[dK]-NH2) | increase fibroblast proliferation |
|  | ≤ 100 ppm | CCCCCCCCCCCCCC(=O)NCC(=O)N[C@@H](CCCCN)C(=O)N[C@@H](CCCCN)C(=O)N[C@@H](C)C(=O)N[C@@H](CC(C)C)C(=O)N[C@H](CCCCN)C(N)=O [P404, Myr-GKKAL-[K]^D-amide] (Myristoyl-GKKAL[dK]-NH2) | increase fibroblast proliferation |
|  | ≤ 100 ppm | CCCCCCCCCCCCCC(=O)N[C@@H](CO)C(=O)N[C@@H](CCCCN)C(=O)N[C@@H](CCCCN)C(=O)N[C@@H](C)C(=O)N[C@@H](CC(C)C)C(=O)N[C@H](CCCCN)C(N)=O [P408, Myr-SKKAL-[K]^D-amide] (Myristoyl-SKKAL[dK]-NH2) | increase fibroblast proliferation |
